# Assay results published in a melting point compilation (Tetko et al.; mined from patent text by program, amines drawn as free bases though some values may be those of a salt).
row,SMILES,melting point [°C]
1,CCOC(=O)c1cnc2c(c(C)nc3cc(C)nn32)c1N1CCN(C)CC1,158 to 159
2,CCOC1CC2(C)C(CCC3C4CC(O)C(Br)C4(C)CC(N(C)C)C32)CC1O (centres undefined),173 to 174
3,Cc1[nH]c(-c2ccccc2)nc1C(=O)C=CN(C)C,218 to 222
4,CNC(=O)c1ccc(-c2ccc(NC(=O)NCc3cccnc3)cc2)nc1NCCN(C)C,163 to 165
5,CC1(C)Oc2ccc(C#N)cc2[C@@H](NC(=O)Nc2cccc(CC(=O)O)c2)[C@@H]1O,135 to 138
6,COc1ccc(S(=O)(=O)N(Cc2ccccc2)C2(C(=O)NO)CCSCC2)cc1,179 to 181
7,COc1cc(C(=O)O)ccc1Cc1cccc2ccc(CCCCC(=O)N(C)C)cc12,125 to 127
8,N#CC1=C(Nc2ccc(F)c(F)c2)CCC1,126 to 128
9,CS(=O)(=O)c1ccc(Oc2cc(OCc3cccc(Cl)n3)c3[nH]c(C4=NCC(CC(N)=O)S4)cc3c2)cc1 (centres undefined),147 to 148
10,COc1ccc(Oc2cccc3ncnc(NC(C)=O)c23)cc1,174 to 175
11,CCc1cc2c(s1)SCCc1cc(=O)n(-c3ccc(OC)cc3)nc1-2,141 to 143
12,CC1=C(C#Cc2ccccc2/C=C/C(C)=C/C(=O)O)C(C)(C)CCC1,194 to 196
13,CC(=NNC(=O)OC1CC(C)CCC1C(C)C)c1ccncc1 (centres undefined),188
14,CCc1nc2ncnc(-c3c(C)cc(C)cc3C)c2[nH]1,215 to 217
15,CCCCNc1nc2ccccc2c2c1ncn2C,98 to 100
16,Cc1c(NC(=O)c2ccc(C(C)(C)C)cc2)cccc1-c1cc(Br)c(=O)n(C)c1,149 to 151
17,O=C1c2ccccc2S(=O)(=O)c2c1cccc2-c1nnn[nH]1,271
18,Cc1cc(C2N(c3ccccc3)CCN2c2ccccc2)cc(Cl)c1O,146 to 147
19,N#Cc1cc(C=O)ccc1-n1cncn1,134 to 141
20,COc1cc(-c2ccnc(Nc3cccc(OC(F)(F)C(F)F)c3)n2)cc(OC)c1OC,132
21,CC(CC(C(C)C(C)(C)O)N(C)C)C1CCC2C(O)CCCC12C (centres undefined),180 to 181
22,COCCNC(=O)c1cccc(-c2cccc3cc(Cc4cc(F)cc(F)c4)sc23)c1,96 to 97
23,CCn1nc(-c2nc(C#N)c(NCc3ccc(OC)cc3)nc2-c2ccccc2)ccc1=O,166 to 168
24,CN1CCN=C(c2ccc([N+](=O)[O-])cc2)C1=O,191 to 192
25,N#CCN1C2CCC1CC(OC(c1ccccc1)c1ccccc1)C2 (centres undefined),94 to 97

row,SMILES,melting point [°C]
1,Cn1c(-c2ccc(C(=N)N)cc2)nc2cc(C(=O)NCCC(=O)O)ccc21,247 to 249
2,CCS(=O)(=O)c1cnc2c(c1)nc(CC(C)(C)C)n2CC1CCOCC1,191
3,Cc1cc(C=O)ccc1C(N)=O,119 to 121
4,CC=NN(C(=O)c1ccc(C)cc1)c1ccc2c(c1)OCCO2,121 to 123
5,Cc1nc(C)c(-c2ccc(OC3SCC(O)C(O)C3O)cn2)s1 (centres undefined),175
6,CCOC(=O)C1CC(=O)C(C(=O)CC)C(=O)C1 (centres undefined),55 to 56
7,OC[C@H](F)[C@H](OCc1ccccc1)[C@H](OCc1ccccc1)[C@@H](O)C(F)(F)F,64 to 65
8,CCOC(=O)C(=O)Nc1ccc2ccccc2c1,118 to 120
9,Cc1cccc(C(=O)NC2CN3CCC2CC3)c1C (racemic),160 to 161
10,COc1ccc2c3c(c(=O)oc2c1)CN(Cc1ccccn1)CC3,140 to 142
11,CSC(=NC(C)=O)N(C)N=Cc1ccccc1,102 to 104
12,CCN1c2ncc(CC(O)c3ccncc3)cc2C(=O)N(C)c2ccc(Cl)nc21 (centres undefined),153 to 154
13,CSc1cc(=O)c2occc2s1,149 to 150
14,COC(=O)c1nc(Cl)cc(Cl)c1N,127 to 128
15,Cc1c(C)c2c(c(C)c1O)CC(CCO)O2 (racemic),123 to 125
16,CCOC(=O)c1cc2c(OCC(O)CNC(C)(C)C)cc(C)cc2[nH]1 (centres undefined),181 to 183
17,COC(=O)C1=C(C)NC(C)=C(C(=O)OC)C1C1CCC(C(=O)O)C1 (centres undefined),177 to 179
18,NC(=O)c1ccc2c(c1)C(=O)c1ccccc1C2=O,299
19,O=C(Nc1ccnn1-c1c(Cl)cc(C(F)(F)F)c(Cl)c1Cl)C(Cl)Cl,156 to 161
20,COc1ccccc1N1CCN(C(=O)CCCCN2CC=C(c3c[nH]c4cc(F)ccc34)CC2)CC1,78 to 81
21,COc1ccc(N=Nc2cc(OC)cc(C(C)(C)C)c2O)cc1,125 to 127
22,COc1ccccc1N1CCN(CC2CCc3ccccc3C2O)CC1 (centres undefined),110 to 113
23,ClC(Cl)(Cl)c1nnc(-c2cccc3ccccc23)o1,90 to 91.5
24,Fc1ccc2[nH]cc(C3=CCN(CC4COc5ccc6[nH]ccc6c5O4)CC3)c2c1 (centres undefined),112
25,Cc1c(C)c2c(c(C)c1C=O)OC(C)(C)C2,93

row,SMILES,melting point [°C]
1,CCOC(=O)c1ccc(OCC(O)COc2cccc3oc(C(=O)OCC)cc(=O)c23)cc1 (centres undefined),134 to 135
2,CCOC(=O)c1c(C)nc(NCCCN(C)C)c2nnn(CC)c12,30 to 34
3,COc1ccc2c(c1)C(=O)C(=Cc1c[nH]c3ccccc13)CO2,217 to 219
4,NCCc1c[nH]c2ccc3c(=O)n(CC4CCCCO4)ccc3c12 (centres undefined),260 to 262
5,CCCCCCCOCCCCCCNCc1c(CO)ccc(O)c1CO,72 to 74
6,"CN1C(=O)CCC2(C)c3ccc(Sc4ccc5ccccc5c4)cc3CCC12 (single isomer, unassigned; (+))",138 to 140
7,COc1ccc(-c2ncsc2-c2ccc(OC)cc2)cc1,98 to 99
8,CC1(C)[C@@H]2CC3[C@H](C(N)=O)[C@@]3(C)C[C@@H]21 (some centres undefined),122
9,C=CCOC(=O)c1ccc(CC(=O)OC(C)(C)C)cc1,68 to 69
10,CC(C)(O)c1ccc(Cl)nc1,67 to 71
11,CCC(C(=O)C(C)C(O)C(C)CCCC(=O)c1c(NC(C)=O)cc(C)c(O)c1C(=O)O)C1OC(CC)(C2CCC(O)(CC)C(C)O2)CC1C (centres undefined),190 to 192
12,CC(=O)N(C)c1nc(C)co1,27 to 29
13,O=C1N(c2ccccc2)N=C(Nc2ccccc2)C1(Br)Br,190
14,Cc1nc2cccc(OCC(C)(C)C(=O)NC(C)C)c2c(N)c1C(=O)O,216 to 218
15,CC(C)C1(C)N=C(c2ncc(O)cc2C(=O)O)NC1=O (centres undefined),255 to 257
16,O=C(C=Cc1ccc(CO)cc1)N1CCc2c([nH]c3ccccc23)C1c1ccc2c(c1)OCO2 (centres undefined),206
17,Cc1cc(-c2noc(C3CC3)n2)cc(C)c1OCCCc1cc(CO)no1,80 to 81
18,O=C(NCCCCCCCCCCCCOC(=O)Oc1ccc([N+](=O)[O-])cc1)OC1CCN(C(=O)Oc2ccc(Oc3ccccc3)cc2)CC1,96 to 98
19,COC(=O)c1c(OC)c([N+](=O)[O-])c(C(=O)OC)c(OC)c1[N+](=O)[O-],126 to 127
20,O=C(O)COc1c(Br)cc(-c2ccc(-c3c(Cc4ccccc4)sc4ccccc34)cc2)cc1Br,183 to 185
21,Cc1cc(C)c([N+](=O)[O-])cc1N1CCC1=O,102
22,COCC(=O)Nc1cccc(-c2ccnc(NCCc3ccc(OC)c(OC)c3)n2)c1,140 to 141
23,COC(=O)C(ON1C(C)(C)CCCC1(C)C)c1ccccc1 (centres undefined),83 to 86
24,O=[N+]([O-])c1ccc(C2(Cn3cncn3)OCCO2)cc1,160
25,COCCOCCOCCOc1ccc(-c2nc(C(=O)Nc3nccs3)c(-c3ccc(Cl)cc3)[nH]2)cc1,120 to 122

row,SMILES,melting point [°C]
1,COc1cccc2c(=O)[nH]c(-c3cc(C)c(OCCN4CCCC4)c(C)c3)nc12,231 to 232
2,COc1ccc(-c2nccc3c(CC#N)cccc23)cc1,130 to 132
3,CCN(CC)c1cccc2nc(Cc3c(Cl)cc(C(F)(F)F)cc3Cl)n(C)c12,150 to 151
4,Cc1cc(C)c2c(c1C)OC1(CCN(Cc3ccccc3)CC1)C2c1ccc(C(C)C)cc1 (centres undefined),125 to 128
5,O=S1CCOCC1c1cccnc1 (centres undefined),74 to 76
6,O=S1(=O)N=CN(C2CC2)c2ccc(F)c(Cl)c21,260 to 263
7,O=C(C=Cc1cccnc1)NCCCCC1CCN(C2c3ccccc3CSc3ccccc32)CC1 (centres undefined),89 to 91
8,COc1cc(OC)nc(NC(=O)NS(=O)(=O)c2ccccc2-c2nnn(C)n2)n1,214 to 222
9,CC(C)(C)C(=O)C(Oc1ccc(Cl)cc1)c1cccnc1 (centres undefined),50
10,CCCCNc1ccc(CCNc2ncnc(CC)c2C(=O)OCC)cc1,65 to 66
11,CCCCCCc1cc(-c2nc(-c3cc(CCCCCC)c(O)cc3O)nc(-c3cc(CCCCCC)c(O)cc3O)n2)c(O)cc1O,> 250
12,Cc1ccc(C)n1-c1c(C(C)C)cc([N+](=O)[O-])cc1C(C)C,125 to 132
13,O=C(Nc1ccc(C(F)(F)F)cc1)c1cccc(Oc2cccc(C(F)(F)F)c2)n1,130 to 132
14,Cc1c(-c2ccccc2)c(N2CC[C@](C)(N)C2)c2oc(C(=O)N(C)C)nc2c1C#N,202 to 204
15,NC(=O)c1cc2ccc(F)cc2nc1N,259 to 262
16,Nc1nc(N)c2c(ccc3c2c2c(n3Cc3ccccc3)CCCC2)n1,224 to 226
17,CCCCCCCCCCCCCCOCc1ccc(C=C2C(=O)C3(C)CCC2C3(C)C)cc1 (centres undefined),35
18,CCOP(=O)(/C=C\c1cnc(-c2ccccc2)nc1OCc1ccc(OCc2nc(-c3ccco3)oc2C)c(OC)c1)OCC,103 to 104
19,O=C(O)c1cn2c3c(c(N4CCCC4)c(F)cc3c1=O)CCN2Cc1ccccc1,174 to 180
20,COC(=O)Cc1cccc(CCC(CO)n2cnc(C(N)=O)c2)c1 (centres undefined),138 to 141
21,CCCCn1cc(C(=O)O)c(=O)c2oc3ccc(Cl)cc3c(=O)c21,271 to 273
22,COC(=O)c1c(-c2cc(OC)c(OC)c(OC)c2)c2cc(OC)c(CC#N)cc2c(=O)n1-c1ccc(NC(=O)OC(C)(C)C)cc1,136 to 138
23,COc1cccc([C@H]2O[C@H](CC(=O)Nc3cc(CCC(=O)O)ccc3F)C(=O)N(CC(C)(C)CO)c3ccc(Cl)cc32)c1OC,151 to 152
24,CCOC(=O)c1cn(C)nc1C(F)(F)F,61.5 to 63.1
